Experimental data taken from US8906908B2, “Hydroxybupropion analogues for treating drug dependence” (priority 2010, dated 2014).

Test system: α3β4*-nAChR
Assay: 86Rb+ efflux nAChR functional assay, SH-SY5Y cells
Type: cell-based, human
Description: Cell Lines and Culture: Human embryonic kidney (HEK-293) cells stably expressing human DAT, NET or SERT were maintained as previously described in Eshleman, A. J.; Carmolli, M.; Cumbay, M.; Martens, C. R.; Neve, K. A.; Janowsky, A., J. Pharmacol. Exp. Ther. 1999, 289, (2), 877-885. Use was made of several human cell lines that naturally or heterologously express specific, functional, human nAChR subtypes. Cells of the TE671/RD line naturally expresses muscle-type nAChR (a1β1γδ- or α1*-nAChR), and SH-SY5Y neuroblastoma cells naturally expresses autonomic α3β4*-nAChRs (containing α3, β4, probably α5, and sometimes β2 subunits). Different clones of SH-EP1 epithelial cell lines have been engineered to heterologously express either α4β2-nAChR, which are thought to be the most abundant, high affinity nicotine-binding nAChR in mammalian brain, or α4β4-nAChR, another possible brain nAChR subtype (SH-EP1-hα4β2 or α4β4 cells, respectively). These cells were maintained as low passage number (1-26 from our frozen stocks) cultures to ensure stable expression of native or heterologously-expressed nAChR as previously described (see Lukas, R. J.; Fryer, J. D.; Eaton, J. B.; L., G. C., Some methods for studies of nicotinic acetylcholine receptor pharmacology, in Nicotinic receptors and the Nervous System, Levine, E. D., Ed. CRC Press: Boca Raton, 2002; pp 3-27, incorporated herein by reference in its entirety). Cells were passaged once weekly by splitting just-confluent cultures 1/300 (TE671/RD), 1/5 (SH-SY5Y), or 1/20 (transfected SH-EP1) in serum-supplemented medium to maintain log-phase growth.
After cells had adhered (generally overnight, but no sooner than 4 h later), the medium was removed and replaced with 250 μL per well of complete medium supplemented with ˜350,000 cpm of ^86Rb^+ (PerkinElmer Life and Analytical Sciences, Boston, Mass.) and counted at 40% efficiency using Cerenkov counting (TriCarb 1900 liquid scintillation analyzer[…]; PerkinElmer Life Sciences).
After at least 4 h and typically overnight, ^86Rb^+ efflux was measured using the “flip-plate” technique. See Lukas, R. J.; Fryer, J. D.; Eaton, J. B.; L., G. C., Some methods for studies of nicotinic acetylcholine receptor pharmacology, in Nicotinic receptors and the Nervous System, Levine, E. D., Ed. CRC Press: Boca Raton, 2002; pp 3-27, incorporated herein by reference in its entirety). Briefly, after aspiration of the bulk of ^86Rb^+ loading medium from each well of the “cell plate,” each well containing cells was rinsed 3× with 2 mL of fresh ^86Rb^+ efflux buffer (130 mM NaCl, 5.4 mM KCl, 2 mM CaCl2, 5 mM glucose, 50 mM HEPES, pH 7.4) to remove extracellular ^86Rb^+. Following removal of residual rinse buffer by aspiration, the flip-plate technique was used again to simultaneously introduce 1.5 mL of fresh efflux buffer containing drugs of choice at indicated final concentrations from a 24-well “efflux/drug plate” into the wells of the cell plate. After a 5 min incubation, the solution was “flipped” back into the efflux/drug plate, and any remaining buffer in the cell plate was removed by aspiration. Cells remaining in the cell plate were lysed and suspended by addition of 1.5 mL of 0.1 M NaOH, 0.1% sodium dodecyl sulfate to each well.
Similarly, the sum of ^86Rb^+ in cell plates and efflux/drug plates also determined the efficiency of ^86Rb^+ loading (the percentage of applied ^86Rb^+ actually loaded into cells).
Specific efflux was then taken as the difference in control samples between total and non-specific ^86Rb^+ efflux. Any intrinsic agonist activity of test drugs was ascertained using samples containing test drug only at different concentrations and was normalized, after subtraction of non-specific efflux, to specific efflux in test drug-free, control samples.

CC1NC(C)(C)COC1(O)c1ccc(Cl)c(Cl)c1 (racemic) [Compound 4n, 2-(3,4-Dichlorophenyl)-3,5,5-trimethylmorpholin-2-ol]
selectivity for α3β4*- over α4β2-nAChR: ~8 fold
